Converted amounts (≈) assume the structure as drawn.
What was measured:
[1] = test system: primary human fetal RPE (hfRPE) culture; experiment: Autophagy induction by LC3 lipidation (LC3-II/LC3-I ratio) on Western blot; assay type: cell-based; settings: 24 hours exposure, vs vehicle (DMSO)
Procedure: (§1) Cell cultures were exposed to each putative autophagy inducer at a concentration indicated in Table 1 for 24 hours, lysed with 36 μL of SDS sample buffer with β-mercaptoethanol, with 15 μg of lysate loaded on a 4-15% gradient gel followed by transfer to a PVDF membrane. Blots were incubated with 1:1000 of LC3A/B antibody (Cell Signaling Technology; #4108s, RRID:AB_2137703) overnight. Quantifying LC3-II/LC3-I ratio is a well-accepted method for det 306 ermining autophagy induction [Ref. 44; incorporated by reference in its entirety], and this ratio was quantified in a non-saturated, linear range using the Azure c500 Imaging System (Azure Biosystems, Dublin, CA, USA) and a combination of AzureSpot and ImageJ software. The data in FIG. 2A are not normalized, whereas the data in FIGS. 2b and 1c are normalized to the average combined value of the vehicle and drug groups within each experimental repeat. The extreme pigmentation of human fetal cultures, combined with the destruction of the LC3 epitope with melanin bleaching protocols, makes detection of LC3 by microscopy in hfRPE difficult. A range of LC3 staining and puncta quantification protocols specifically adapted to pigmented hfRPE culture were employed [Ref. 43; incorporated by reference in its entirety]. At least five fields of view were randomly chosen and analyzed per experimental replicate for LC3 immunocytochemistry.
To test for autophagy induction, lipidation of the core autophagy protein LC3 was measured by mobility shift on Western blots 24 hours after each compound was added to hfRPE cultures [Ref. 44; incorporated by reference in its entirety]. […] Of the more than 30 putative autophagy inducers tested, only five produced an increased ratio of LC3-II/LC3-I, consistent with increased autophagy (FIG. 2a).
Autophagy induction was measured by LC3-II/LC3-I Ratios on Western Blot (standard method for autophagy induction) (FIG. 18A-C). Drugs were applied to primary human RPE culture for 24 hours.

[2] = test system: primary human fetal RPE (hfRPE) culture; experiment: Autophagy induction by LC3 puncta formation (immunocytochemistry); assay type: cell-based; settings: 24 hours exposure
Procedure: as §1
Autophagy induction was confirmed by assaying the formation of LC3-positive puncta (autophagosomes) by immunocytochemistry [Ref. 44; incorporated by reference in its entirety]. Puncta formation was quantified in automated/unbiased fashion using a customized macro in the Fiji/ImageJ platform [Ref. 43; incorporated by reference in its entirety].
Autophagy induction was measured by LC3 puncta on immunocytochemistry (standard method for autophagy induction) (FIG. 19). Drugs applied to primary human RPE culture for 24 hours.

primary RPE cultures = experiment: Ketone body production (β-hydroxybutyrate, β-HB) fluorometric assay; assay type: cell-based, human; settings: 24 hours, apical supernate
Procedure: After 24 hours of exposure to drugs, supernates were collected and subjected to western blotting for APOE detection and a fluorometric assay for β-HB detection [Ref 51; incorporated by reference in its entirety]. Twenty microliters of apical and basolateral supernates for APOE were mixed with SDS sample buffer and blotted with antibody at a dilution of 1:2000. APOE and β-HB values were normalized to the average value of the vehicle and experimental group within each experimental repeat.
The RPE handles an enormous lipid burden on a daily basis, including OS ingestion from its apical side and lipoprotein particle absorption from its basolateral side. Rather than storing excess lipid, the RPE may choose to degrade or secrete surplus lipids (FIG. 4a). A marker of lipid degradation is the production of KBs, which are secreted by the RPE apically and serve as an energy source for photoreceptors [Refs. 7,8; incorporated by reference in their entireties]. A marker of lipid secretion is the production of the lipoprotein APOE, which is a major component of drusen [Ref. 50; incorporated by reference in its entirety]. It was contemplated that autophagy inducers promote ketogenesis through degradation of ingested lipids, reducing the stimulus for secretion of drusen-promoting APOE.

primary hfRPE culture = experiment: UAM-induced senescence (β-galactosidase activity); assay type: cell-based, human
From the text: FIG. 6. FLBZ alleviates UAM-induced senescence and tight-junction disruption. (A) (Top) FLBZ reduces senescence when fed concurrently with oxOS during UAM accumulation. (Bottom) FLBZ is unable to reverse established senescence induced by already accumulated UAM. FLBZ is fed daily together with oxOS for 20 days in a month (top) or after one month of 20 oxOS feedings to induce UAM buildup (bottom). DMSO as vehicle control. Senescence measured by β-galactosidase activity (blue). Scale bar: 50 μm. n=6. […] Left graph n=6, right graph n=12. ns p>0.05, *p<0.05, ***p<0.001.
UAM accumulation and quantification as well as assays on senescence were carried out [Ref. 51; incorporated by reference in its entirety]. UAM granule size was measured with Leica LAS X software using the length of the long axis of the granule ellipse.

RPE of mouse eye = experiment: Intravitreal injection in mouse eyes, autophagy by LC3II/LC3I ratio of lysates; assay type: in vivo; settings: four concentrations up to 500 uM, multiple timepoints, DMSO in other eye
Procedure: Experiments were conducted during development of embodiments herein to assay for autophagy in the mouse eye. Experiments were conducted to measure autophagy by giving an intraperitoneal injection of leupeptin, followed by assaying for LC3 puncta in an RPE flatmount of a GFP-LC3 mouse. Background from GFP-LC3 debris deposited on the RPE when the retina was peeled off for the flat mount prevented signal detection. A biochemical assay was then employed for autophagy induction, measuring an increase in the lipidation of the autophagy core protein LC3 (lipidated LC3=LC3-II, unlipidated LC3=LC3-I, so higher LC3-II/LC3-I ratio indicates autophagy induction). Sufficient signal as obtained. […] Harvesting techniques were also optimized for collecting RPE from mouse eyes.
Experiments were conducted during development of embodiments herein to establish a positive control for autophagy induction. […] Autophagy induction was measured at 4 different concentrations of Torin (500 nm, 5 um, 50 um, 500 um) and at 5 different timepoints after injection (1 day, 3 days, 7 days, 14 days, 28 days). […] Nevertheless, the ability of intravitreal injections of FLBZ to induce autophagy in the RPE was assessed. In preparation for injecting FLBZ intravitreally into mice, solubility assays were performed and the maximum amount of FLBZ that can be injected without it crashing out of solution in the vitreous was determined. […]

[3] = Solubility assays of DMSO stock mixed with PBS (simulating the vitreous); assay type: physicochemical
Procedure: Experiments were conducted during development of embodiments herein to establish a positive control for autophagy induction. The direct mTOR inhibitor Torin1 was selected over rapamycin/sirolimus as the positive control, based on the capacity of Torin1 to induce autophagy in primary culture more strongly and more consistently than rapamycin. The experimental set-up involved injecting one eye with Torin and the other eye with the DMSO vehicle. Autophagy induction was measured at 4 different concentrations of Torin (500 nm, 5 um, 50 um, 500 um) and at 5 different timepoints after injection (1 day, 3 days, 7 days, 14 days, 28 days). […] Nevertheless, the ability of intravitreal injections of FLBZ to induce autophagy in the RPE was assessed. In preparation for injecting FLBZ intravitreally into mice, solubility assays were performed and the maximum amount of FLBZ that can be injected without it crashing out of solution in the vitreous was determined. […] This helped inform maximal concentrations of flubendazole that could be injected intravitreally. Four different concentrations were injected, up to the maximum solubility of FLBZ, and autophagy induction was assayed over a timeframe ranging from 1 week to 4 weeks after injection.

With `COC(=O)Nc1nc2cc(C(=O)c3ccc(F)cc3)ccc2[nH]1` [FLBZ, Flubendazole] the “LC3-II/LC3-I ratio (autophagy induction)” value [1] was “Induction of autophagy”, the “LC3 puncta formation (autophagy induction)” value [2] was “induced autophagy” and the “β-hydroxybutyrate (β-HB) production” value (primary RPE cultures) was “increased production”. The “Senescence, drug after UAM had accumulated” value (primary hfRPE culture; drug fed after one month of 20 oxOS feedings) was “cell senescence was not decreased”, the “Senescence, drug cofed with oxOS” value (primary hfRPE culture; fed daily together with oxOS for 20 days in a month, vs vehicle) was “less senescence” and the “Autophagy induction in RPE after intravitreal injection (LC3II/LC3I ratio)” value (RPE of mouse eye) was “no convincing evidence for autophagy induction”. For the same molecule, the solubility ([3]; DMSO stock solution mixed with PBS (simulating the vitreous), aqueous with cosolvent or surfactant or cyclodextrin, kinetic from dmso stock, delivered in 1 ul of DMSO, read-out: Maximum soluble concentration for intravitreal injection) was 500 µM (≈ 157 µg/mL) and the “Precipitation of DMSO stock solution when mixed with PBS” value ([3]; Torin 1 mM stock mixed 1:1 with PBS, flubendazole 3 mM stock) was “crashed out when mixed with PBS unless at a dilution of 1:20 or more”.

Source: patent publication US20240058308A1, “TREATMENT AND PREVENTION OF DRY MACULAR DEGENERATION” (The Regents of the University of Michigan, priority 2021, published 2024)
